Results: US10550105B2 (Ribon Therapeutics Inc., priority 2018, dated 2020)
pIC50: −log10 of the molar value.

These molecules were tested against PARP7 (Homo sapiens (Human), UniProt Q7Z3E1) (assay: Enzymatic assay for inhibition of PARP7: TR-FRET displacement of biotinylated Probe A from the TIPARP active site). Settings: Table A-1.
Assay type: binding
In short: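 Displacement of biotinylated Probe A from TIPARP was measured as the 665/615 nm time-resolved FRET ratio (excitation 320 nm, 90 μs delay) after a further 30 min at 25 °C. Inhibition across compound concentrations was fitted by dose-response regression, with the Hill slope free or fixed at 1 (3-parameter fit).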

Chain of PARP7 (Q7Z3E1 whole entry): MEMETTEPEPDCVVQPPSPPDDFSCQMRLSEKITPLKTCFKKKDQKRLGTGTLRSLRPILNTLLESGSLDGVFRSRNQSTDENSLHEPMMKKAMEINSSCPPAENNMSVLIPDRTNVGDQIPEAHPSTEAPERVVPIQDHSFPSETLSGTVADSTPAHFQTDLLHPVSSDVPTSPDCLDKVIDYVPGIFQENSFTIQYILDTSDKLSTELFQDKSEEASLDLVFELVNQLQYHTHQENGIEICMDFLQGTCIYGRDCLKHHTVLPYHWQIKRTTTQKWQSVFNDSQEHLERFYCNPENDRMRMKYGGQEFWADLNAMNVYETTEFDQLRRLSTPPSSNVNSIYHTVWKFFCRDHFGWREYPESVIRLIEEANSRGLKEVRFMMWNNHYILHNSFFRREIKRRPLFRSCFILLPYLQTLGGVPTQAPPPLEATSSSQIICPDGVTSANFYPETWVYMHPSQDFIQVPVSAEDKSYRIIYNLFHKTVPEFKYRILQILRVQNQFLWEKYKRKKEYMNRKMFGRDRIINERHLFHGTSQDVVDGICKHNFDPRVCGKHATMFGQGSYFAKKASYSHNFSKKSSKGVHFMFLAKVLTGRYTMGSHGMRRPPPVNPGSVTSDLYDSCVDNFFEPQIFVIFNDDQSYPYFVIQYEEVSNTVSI

SMILES | pIC50
C[C@H](CSCCC(=O)N1CCN(c2ncc(C(F)(F)F)cn2)CC1)Oc1cn[nH]c(=O)c1C(F)(F)F [Example 621B, (R)-5-((1-((3-Oxo-3-(4-(5-(trifluoromethyl)pyrimidin-2-yl)piperazin-1-yl)propyl)thio)propan-2-yl)oxy)-4-(trifluoromethyl)pyridazin-3(2H)-one] | > 7.00
COC[C@@H](CO[C@@H](C)CC(=O)N1CCN(c2ccc(C#N)cn2)CC1)Oc1cn[nH]c(=O)c1C(F)(F)F (single isomer, unassigned) [Example 571 Isomer B] | 6.00 to 7.00
O=C(CCOC[C@@H](Nc1cn[nH]c(=O)c1C(F)(F)F)C1CCNCC1)N1CCN(c2ncc(C(F)(F)F)cn2)CC1 [Example 653, (S)-5-((2-(3-Oxo-3-(4-(5-(trifluoromethyl)pyrimidin-2-yl)piperazin-1-yl)propoxy)-1-(piperidin-4-yl)ethyl)amino)-4-(trifluoromethyl)pyridazin-3(2H)-one] | ≤ 6.00
N#Cc1ccc(N2CCN(C(=O)CCOC[C@H]3c4ncccc4CN3c3cn[nH]c(=O)c3C(F)(F)F)CC2)nc1 [Example 137B, 6-[4-(3-[[(7R)-6-[6-oxo-5-(trifluoromethyl)-1,6-dihydropyridazin-4-yl]-5H,6H,7H-pyrrolo[3,4-b]pyridin-7-yl]methoxy]propanoyl)piperazin-1-yl]pyridine-3-carbonitrile] | > 7.00
N#Cc1ccc(N2CCN(C(=O)C/C=C\OC[C@@H]3c4ccccc4CN3c3cn[nH]c(=O)c3C(F)(F)F)CC2)nc1 (single isomer, unassigned; isomer a) [Example 79 Isomer A] | > 7.00
O=c1[nH]ncc(N2Cc3cccc(Oc4cccnc4)c3C2)c1C(F)(F)F [Example 233, 5-(4-(Pyridin-3-yloxy)isoindolin-2-yl)-4-(trifluoromethyl)pyridazin-3(2H)-one] | > 7.00
N#Cc1ccc(N2CCN(C(=O)c3cc(OC[C@H]4c5ccccc5CN4c4cn[nH]c(=O)c4C(F)(F)F)ccn3)CC2)nc1 [Example 356, (R)-6-(4-(4-((2-(6-Oxo-5-(trifluoromethyl)-1,6-dihydropyridazin-4-yl)isoindolin-1-yl)methoxy)picolinoyl)piperazin-1-yl)nicotinonitrile] | 6.00 to 7.00
COCC1C[C@@H](COCCC(=O)N2CCN(c3ccc(C#N)cn3)CC2)N(c2cn[nH]c(=O)c2C(F)(F)F)C1 (stereo partly drawn) [Example 139, 6-[4-(3-[[(2S)-4-(methoxymethyl)-1-[6-oxo-5-(trifluoromethyl)-1,6-dihydropyridazin-4-yl]pyrrolidin-2-yl]methoxy]propanoyl)piperazin-1-yl]pyridine-3-carbonitrile] | > 7.00
C[C@@H](COCCC(=O)N1CCN(c2ccccn2)CC1)Nc1cn[nH]c(=O)c1C(F)(F)F [Example 675, (S)-5-((1-(3-Oxo-3-(4-(pyridin-2-yl)piperazin-1-yl)propoxy)propan-2-yl)amino)-4-(trifluoromethyl)pyridazin-3(2H)-one] | > 7.00
N#Cc1ccc(N2CCN(C(=O)[C@H]3CCC[C@@H](OC[C@@H]4CCCN4c4cn[nH]c(=O)c4C(F)(F)F)C3)CC2)nc1 (single isomer, unassigned) [Example 57 Isomer C] | 6.00 to 7.00
N#Cc1ccc(NCCC(=O)Nc2cncc(OC[C@@H]3CCCN3c3cn[nH]c(=O)c3C(F)(F)F)c2)nc1 [Example 87, 3-[(5-cyanopyridin-2-yl)amino]-N-(5-[[(2S)-1-[6-oxo-5-(trifluoromethyl)-1,6-dihydropyridazin-4-yl]pyrrolidin-2-yl]methoxy]pyridin-3-yl)propanamide] | > 7.00
C[C@@H](COCCC(=O)N1CCN(c2ccc(C#N)cn2)CC1)Oc1cn[nH]c(=O)c1Br [Example 650, (S)-6-(4-(3-(2-((5-Bromo-6-oxo-1,6-dihydropyridazin-4-yl)oxy)propoxy)propanoyl)piperazin-1-yl)nicotinonitrile] | > 7.00
CN1CCN(c2cccc3c2CN(c2cn[nH]c(=O)c2C(F)(F)F)C3)CC1 [Example 314, 5-(4-(4-Methylpiperazin-1-yl)isoindolin-2-yl)-4-(trifluoromethyl)pyridazin-3(2H)-one] | 6.00 to 7.00
N#Cc1ccc(N2CCN(C(=O)C[C@@H]3CC[C@H](CNc4cn[nH]c(=O)c4C(F)(F)F)O3)CC2)nc1 [Example 581 Isomer D, 6-(4-[2-[(2S,5R)-5-([[6-oxo-5-(trifluoromethyl)-1,6-dihydropyridazin-4-yl]amino]methyl)oxolan-2-yl]acetyl]piperazin-1-yl)pyridine-3-carbonitrile] | > 7.00
COC[C@@H](COCCC(=O)N1CCN(c2ncc(Cl)cn2)CC1)Oc1cn[nH]c(=O)c1C(F)(F)F (single isomer, unassigned) | > 7.00
O=C(C[C@@H]1CC[C@H]([C@@H]2CCCN2c2cn[nH]c(=O)c2C(F)(F)F)O1)N1CCN(c2ncc(Cl)cn2)CC1 (single isomer, unassigned) [Example 147C] | 6.00 to 7.00
CN1CCC(Oc2cccc3c2CN(c2cn[nH]c(=O)c2C(F)(F)F)C3)CC1 [Example 210, 5-(4-((1-Methylpiperidin-4-yl)oxy)isoindolin-2-yl)-4-(trifluoromethyl)pyridazin-3(2H)-one] | 6.00 to 7.00

SMILES | pIC50
Cc1c(N2Cc3cccc(OCCO)c3C2)cn[nH]c1=O [Example 171, 5-(4-(2-Hydroxyethoxy)isoindolin-2-yl)-4-methylpyridazin-3(2H)-one] | ≤ 6.00
N#Cc1ccc(N2CCN(C(=O)CCOC[C@@H]3CCCN3c3cn[nH]c(=O)c3C(F)(F)F)CC2)cn1 [Example 475, (S)-5-(4-(3-((1-(6-Oxo-5-(trifluoromethyl)-1,6-dihydropyridazin-4-yl)pyrrolidin-2-yl)methoxy)propanoyl)piperazin-1-yl)picolinonitrile] | > 7.00
O=c1[nH]ncc(N2Cc3cccc(NCc4ccncc4)c3C2)c1C(F)(F)F [Example 266, 5-(4-((Pyridin-4-ylmethyl)amino)isoindolin-2-yl)-4-(trifluoromethyl)pyridazin-3(2H)-one] | > 7.00
C[C@@H](COCCC(=O)N1CCN(c2ccc(C#N)cn2)CC1)Sc1cn[nH]c(=O)c1C(F)(F)F [Example 655, (S)-6-(4-(3-(2-((6-Oxo-5-(trifluoromethyl)-1,6-dihydropyridazin-4-yl)thio)propoxy)propanoyl)piperazin-1-yl)nicotinonitrile] | > 7.00
C[C@@H](COCCC(=O)N1CCN(c2cnc(C#N)cn2)CC1)Nc1cn[nH]c(=O)c1C(F)(F)F [Example 683, (S)-5-(4-(3-(2-((6-Oxo-5-(trifluoromethyl)-1,6-dihydropyridazin-4-yl)amino)propoxy)propanoyl)piperazin-1-yl)pyrazine-2-carbonitrile] | > 7.00
N#Cc1ccc(N2CCN(C(=O)c3cccc(OC[C@H]4CCCN4c4cn[nH]c(=O)c4C(F)(F)F)c3)CC2)nc1 [Example 31, 6-[4-[(3-[[(2R)-1-[6-oxo-5-(trifluoromethyl)-1,6-dihydropyridazin-4-yl]pyrrolidin-2-yl]methoxy]phenyl)carbonyl]piperazin-1-yl]pyridine-3-carbonitrile] | ≤ 6.00
O=c1[nH]ncc(N2Cc3ccc(F)cc3C2)c1C(F)(F)F [Example 169, 5-(5-Fluoroisoindolin-2-yl)-4-(trifluoromethyl)pyridazin-3(2H)-one] | > 7.00
N#Cc1ccc(N2CCC3(CCN(C(=O)CCOC[C@@H]4CCCN4c4cn[nH]c(=O)c4C(F)(F)F)CC3)C2)nc1 [Example 104, 6-[8-(3-[[(2S)-1-[6-oxo-5-(trifluoromethyl)-1,6-dihydropyridazin-4-yl]pyrrolidin-2-yl]methoxy]propanoyl)-2,8-diazaspiro[4.5]decan-2-yl]pyridine-3-carbonitrile] | ≤ 6.00
C[C@@H](COCCC(=O)N1CCN(c2ncc(C(F)(F)F)s2)CC1)Oc1cn[nH]c(=O)c1Cl [Example 729, (S)-4-Chloro-5-((1-(3-oxo-3-(4-(5-(trifluoromethyl)thiazol-2-yl)piperazin-1-yl)propoxy)propan-2-yl)oxy)pyridazin-3(2H)-one] | 6.00 to 7.00
O=C(C[C@H]1CC[C@@H](CNc2cn[nH]c(=O)c2C(F)(F)F)O1)N1CCN(c2ncc(C(F)(F)F)cn2)CC1 [Example 568 Isomer C, 5-((((2S,5R)-5-(2-Oxo-2-(4-(5-(trifluoromethyl)pyrimidin-2-yl)piperazin-1-yl)ethyl)tetrahydrofuran-2-yl)methyl)amino)-4-(trifluoromethyl)pyridazin-3(2H)-one] | > 7.00
O=c1[nH]ncc(N2Cc3ccnc(OCc4cccnc4)c3C2)c1C(F)(F)F [Example 15, 5-[4-(pyridin-3-ylmethoxy)-1H,2H,3H-pyrrolo[3,4-c]pyridin-2-yl]-4-(trifluoromethyl)-2,3-dihydropyridazin-3-one] | > 7.00
CN1CCC(Oc2cccc3c2CN(c2cn[nH]c(=O)c2Cl)C3)C1 (stereo not drawn) [Example 259, 4-Chloro-5-(4-((1-methylpyrrolidin-3-yl)oxy)isoindolin-2-yl)pyridazin-3(2H)-one] | ≤ 6.00
CC(C)c1c(N2Cc3ccc(O[C@H]4CCCNC4)cc3C2)cn[nH]c1=O [Example 293, (S)-4-Isopropyl-5-(5-(piperidin-3-yloxy)isoindolin-2-yl)pyridazin-3(2H)-one] | ≤ 6.00
O=C(CCOC[C@@H]1CCCN1c1cn[nH]c(=O)c1C(F)(F)F)N1CCN(c2ccc(C(F)(F)F)cn2)CC1 [Example 458, (S)-5-(2-((3-Oxo-3-(4-(5-(trifluoromethyl)pyridin-2-yl)piperazin-1-yl)propoxy)methyl)pyrrolidin-1-yl)-4-(trifluoromethyl)pyridazin-3(2H)-one] | > 7.00
O=c1[nH]ncc(N2Cc3cccc(OCc4cccnc4)c3C2)c1C(F)(F)F [Example 197, 5-(4-(Pyridin-3-ylmethoxy)isoindolin-2-yl)-4-(trifluoromethyl)pyridazin-3(2H)-one] | > 7.00
O=C(CCOC[C@@H]1CCCN1c1cn[nH]c(=O)c1C(F)(F)F)N1CCN(c2ncc(C(F)(F)F)cn2)CC1 [Example 457, (S)-5-(2-((3-Oxo-3-(4-(5-(trifluoromethyl)pyrimidin-2-yl)piperazin-1-yl)propoxy)methyl)pyrrolidin-1-yl)-4-(trifluoromethyl)pyridazin-3(2H)-one] | > 7.00
